molecular target: CD73 (Homo sapiens (Human), UniProt P21589); assay: Biochemical assay: inhibition of CD73 activity (AMP hydrolysis, Malachite Green readout); conditions: CD73 0.3208 nM, AMP 15 μM, 25 mM Tris-HCl pH 7.4, RT, absorbance 620 nm
How it was run: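 Human CD73 (320 pM final) preincubated 15 min at RT with compounds (10-point ½-log titration from 100 μM, duplicates) in 25 mM Tris-HCl pH 7.4, 5 mM MgCl2, 0.01% Brij-35, 0.01% BSA. 15 μM AMP added, 10 min at RT; released phosphate read by Malachite Green absorbance; IC50 determined.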

CD73, sequence (P21589 27-574): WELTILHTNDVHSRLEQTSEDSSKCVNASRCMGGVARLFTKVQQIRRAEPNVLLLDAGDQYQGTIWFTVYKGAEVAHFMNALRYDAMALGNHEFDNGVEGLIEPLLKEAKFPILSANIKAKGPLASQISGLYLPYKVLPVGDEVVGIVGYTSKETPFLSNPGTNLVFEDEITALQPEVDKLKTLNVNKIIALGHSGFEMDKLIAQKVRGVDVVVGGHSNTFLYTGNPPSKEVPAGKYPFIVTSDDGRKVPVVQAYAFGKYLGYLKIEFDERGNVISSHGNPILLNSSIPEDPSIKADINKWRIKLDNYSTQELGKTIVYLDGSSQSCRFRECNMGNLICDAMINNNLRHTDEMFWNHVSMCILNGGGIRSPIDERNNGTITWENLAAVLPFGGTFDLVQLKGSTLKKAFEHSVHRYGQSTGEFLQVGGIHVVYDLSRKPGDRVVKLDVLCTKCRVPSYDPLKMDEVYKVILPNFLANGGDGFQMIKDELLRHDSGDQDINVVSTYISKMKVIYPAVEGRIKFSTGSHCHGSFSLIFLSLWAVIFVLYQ

Row | Compound | IC50
1 | CC(CO)(OC[C@H]1O[C@@H](n2ncc3c(N[C@@H]4CCc5ccccc54)nc(Cl)nc32)[C@H](O)[C@@H]1O)P(=O)(O)O (stereo partly drawn) [Example 61, (2-(((2R,3S,4R,5R)-5-(6-chloro-4-(((R)-2,3-dihydro-1H-inden-1-yl)amino)-1H-pyrazolo[3,4-d]pyrimidin-1-yl)-3,4-dihydroxytetrahydrofuran-2-yl)methoxy)-1-hydroxypropan-2-yl)phosphonic acid] | ≤ 100 nM
2 | O=C(O)c1ccccc1COCC(CO)(OC[C@H]1O[C@@H](n2ncc3c(NC4CCCC4)nc(Cl)nc32)[C@H](O)[C@@H]1O)P(=O)(O)O (mixture of isomers) [Example 227, rac-2-((2-(((2R,3S,4R,5R)-5-(6-chloro-4-(cyclopentylamino)-1H-pyrazolo[3,4-d]pyrimidin-1-yl)-3,4-dihydroxytetrahydrofuran-2-yl)methoxy)-3-hydroxy-2-phosphonopropoxy)methyl)benzoic acid] | ≤ 100 nM
3 | O=P(O)(O)[C@@](CO)(Cc1nn[nH]n1)OC[C@H]1O[C@@H](n2ncc3c(NC4CCCC4)nc(CO)nc32)[C@H](O)[C@@H]1O (racemic) [Example 218, rac-((R)-2-(((2R,3S,4R,5R)-5-(4-(cyclopentylamino)-6-(hydroxymethyl)-1H-pyrazolo[3,4-d]pyrimidin-1-yl)-3,4-dihydroxytetrahydrofuran-2-yl)methoxy)-1-hydroxy-3-(2H-tetrazol-5-yl)propan-2-yl)phosphonic acid] | ≤ 100 nM
4 | COC[C@@](C)(OC[C@H]1O[C@@H](n2nnc3c(NC4CCCC4)cc(Cl)nc32)[C@H](O)[C@@H]1O)P(=O)(O)O [Example 143, ((S)-2-(((2R,3S,4R,5R)-5-(5-chloro-7-(cyclopentylamino)-3H-[1,2,3]triazolo[4,5-b]pyridin-3-yl)-3,4-dihydroxytetrahydrofuran-2-yl)methoxy)-1-methoxypropan-2-yl)phosphonic acid] | ≤ 100 nM
5 | O=P(O)(O)C(CO)(COCC(F)(F)F)OC[C@H]1O[C@@H](n2ncc3c(NC4CCCC4)nc(Cl)nc32)[C@H](O)[C@@H]1O (mixture of isomers) [Example 208, rac-(2-(((2R,3S,4R,5R)-5-(6-chloro-4-(cyclopentylamino)-1H-pyrazolo[3,4-d]pyrimidin-1-yl)-3,4-dihydroxytetrahydrofuran-2-yl)methoxy)-1-hydroxy-3-(2,2,2-trifluoroethoxy)propan-2-yl)phosphonic acid] | ≤ 100 nM
6 | COCC(OC[C@H]1O[C@@H](n2ncc3c(NC4CCCC4)nc(Cl)nc32)[C@H](O)[C@@H]1O)P(=O)(O)O (stereo partly drawn) [Example 31, (1-(((2R,3S,4R,5R)-5-(6-chloro-4-(cyclopentylamino)-1H-pyrazolo[3,4-d]pyrimidin-1-yl)-3,4-dihydroxytetrahydrofuran-2-yl)methoxy)-2-methoxyethyl)phosphonic acid] | ≤ 100 nM
7 | CC(O)C(OC[C@H]1O[C@@H](n2ncc3c(NC4CCCC4)nc(Cl)nc32)[C@H](O)[C@@H]1O)P(=O)(O)O (stereo partly drawn) [Example 42, (1-(((2R,3S,4R,5R)-5-(6-chloro-4-(cyclopentylamino)-1H-pyrazolo[3,4-d]pyrimidin-1-yl)-3,4-dihydroxytetrahydrofuran-2-yl)methoxy)-2-hydroxypropyl)phosphonic acid] | ≤ 100 nM
8 | O=P(O)(O)[C@](CO)(Cc1nn[nH]n1)OC[C@H]1O[C@@H](n2ncc3c(NC4CCC4)nc(Cl)nc32)[C@H](O)[C@@H]1O (racemic) [Example 214, rac-((R)-2-(((2S,3R,4S,5S)-5-(6-chloro-4-(cyclobutylamino)-1H-pyrazolo[3,4-d]pyrimidin-1-yl)-3,4-dihydroxytetrahydrofuran-2-yl)methoxy)-1-hydroxy-3-(2H-tetrazol-5-yl)propan-2-yl)phosphonic acid] | ≤ 100 nM
9 | COC[C@](C)(OC[C@H]1O[C@@H](n2nnc3c(NC4CCCC4)cc(Cl)nc32)[C@H](O)[C@@H]1O)P(=O)(O)O [Example 148, ((R)-2-(((2R,3S,4R,5R)-5-(5-chloro-7-(cyclopentylamino)-3H-[1,2,3]triazolo[4,5-b]pyridin-3-yl)-3,4-dihydroxytetrahydrofuran-2-yl)methoxy)-1-methoxypropan-2-yl)phosphonic acid] | ≤ 100 nM
10 | COC[C@](C)(OC[C@H]1O[C@@H](n2ncc3c(NCC4CC4)nc(Cl)nc32)[C@H](O)[C@@H]1O)P(=O)(O)O [Example 131, ((R)-2-(((2R,3S,4R,5R)-5-(6-chloro-4-((cyclopropylmethyl)amino)-1H-pyrazolo[3,4-d]pyrimidin-1-yl)-3,4-dihydroxytetrahydrofuran-2-yl)methoxy)-1-methoxypropan-2-yl)phosphonic acid] | ≤ 100 nM
11 | C[C@@H](OC[C@H]1O[C@@H](n2ncc3c(NC4CCCC4)nc(Cl)nc32)[C@H](O)[C@@H]1O)P(=O)(O)O [Example 32, ((S)-1-(((2R,3S,4R,5R)-5-(6-chloro-4-(cyclopentylamino)-1H-pyrazolo[3,4-d]pyrimidin-1-yl)-3,4-dihydroxytetrahydrofuran-2-yl)methoxy)ehtyl)phosphonic acid] | ≤ 100 nM
12 | O=C(O)c1cccc(CC(CO)(OC[C@H]2O[C@@H](n3ncc4c(NC5CCCC5)nc(Cl)nc43)[C@H](O)[C@@H]2O)P(=O)(O)O)c1 (mixture of isomers) [Example 190, rac-3-(2-(((2R,3S,4R,5R)-5-(6-chloro-4-(cyclopentylamino)-1H-pyrazolo[3,4-d]pyrimidin-1-yl)-3,4-dihydroxytetrahydrofuran-2-yl)methoxy)-3-hydroxy-2-phosphonopropyl)benzoic acid] | ≤ 100 nM
13 | O=P(O)(O)CP(=O)(O)OC[C@H]1O[C@@H](n2nnc3c(NC4CCCC4)cc(Cl)nc32)[C@H](O)[C@@H]1O [Example 53, (((((2R,3S,4R,5R)-5-(5-chloro-7-(cyclopentylamino)-3H-[1,2,3]triazolo[4,5-b]pyridin-3-yl)-3,4-dihydroxytetrahydrofuran-2-yl)methoxy)(hydroxy)phosphoryl)methyl)phosphonic acid] | ≤ 100 nM
14 | O=P(O)(O)[C@@H](CO)OC[C@H]1O[C@@H](n2ncc3c(NC4CCCC4)nc(Cl)nc32)[C@H](O)[C@@H]1O (single isomer, unassigned) [Example 3] | ≤ 100 nM
15 | O=C(c1ccccc1)C(OC[C@H]1O[C@@H](n2ncc3c(NC4CCCC4)nc(Cl)nc32)[C@H](O)[C@@H]1O)P(=O)(O)O (stereo partly drawn) [Example 41, (1-(((2R,3S,4R,5R)-5-(6-chloro-4-(cyclopentylamino)-1H-pyrazolo[3,4-d]pyrimidin-1-yl)-3,4-dihydroxytetrahydrofuran-2-yl)methoxy)-2-oxo-2-phenylethyl)phosphonic acid] | 100 to 1000 nM
16 | O=P(O)(O)COC[C@H]1O[C@@H](n2nnc3c(NCC4CC4)cc(Cl)nc32)[C@H](O)[C@@H]1O [Example 21, ((((2R,3S,4R,5R)-5-(5-chloro-7-((cyclopropylmethyl)amino)-3H-[1,2,3]triazolo[4,5-b]pyridin-3-yl)-3,4-dihydroxytetrahydrofuran-2-yl)methoxy)methyl)phosphonic acid] | ≤ 100 nM
17 | CCOC(=O)C(OC[C@H]1O[C@@H](n2ncc3c(NC4CCCC4)nc(Cl)nc32)[C@H](O)[C@@H]1O)P(=O)(O)O (stereo partly drawn) [Example 1, (1-(((2R,3S,4R,5R)-5-(6-Chloro-4-(cyclopentylamino)-1H-pyrazolo[3,4-d]pyrimidin-1-yl)-3,4-dihydroxytetrahydrofuran-2-yl)methoxy)-2-ethoxy-2-oxoethyl)phosphonic acid] | ≤ 100 nM
18 | C[C@](CO)(OC[C@H]1O[C@@H](n2ncc3c(NC4CCC4)nc(Cl)nc32)[C@H](O)[C@@H]1O)P(=O)(O)O [Example 102, ((S)-2-(((2R,3S,4R,5R)-5-(6-chloro-4-(cyclobutylamino)-1H-pyrazolo[3,4-d]pyrimidin-1-yl)-3,4-dihydroxytetrahydrofuran-2-yl)methoxy)-1-hydroxypropan-2-yl)phosphonic acid] | ≤ 100 nM
19 | O=P(O)(O)C(CO)(Cc1nc[nH]n1)OC[C@H]1O[C@@H](n2ncc3c(NC4CCCC4)nc(Cl)nc32)[C@H](O)[C@@H]1O (mixture of isomers) [Example 219, rac-(2-(((2R,3S,4R,5R)-5-(6-chloro-4-(cyclopentylamino)-1H-pyrazolo[3,4-d]pyrimidin-1-yl)-3,4-dihydroxytetrahydrofuran-2-yl)methoxy)-1-hydroxy-3-(1H-1,2,4-triazol-3-yl)propan-2-yl)phosphonic acid] | ≤ 100 nM
20 | CC(COCC1CC1)(OC[C@H]1O[C@@H](n2ncc3c(NC4CCCC4)nc(Cl)nc32)[C@H](O)[C@@H]1O)P(=O)(O)O (stereo partly drawn) [Example 153, (2-(((2R,3S,4R,5R)-5-(6-chloro-4-(cyclopentylamino)-1H-pyrazolo[3,4-d]pyrimidin-1-yl)-3,4-dihydroxytetrahydrofuran-2-yl)methoxy)-1-(cyclopropylmethoxy)propan-2-yl)phosphonic acid] | ≤ 100 nM
21 | O=P(O)(O)CS(=O)(=O)C[C@H]1O[C@@H](n2nnc3c(NCC4CC4)cc(Cl)nc32)[C@H](O)[C@@H]1O [Example 25, (((((2S,3S,4R,5R)-5-(5-chloro-7-((cyclopropylmethyl)amino)-3H-[1,2,3]triazolo[4,5-b]pyridin-3-yl)-3,4-dihydroxytetrahydrofuran-2-yl)methyl)sulfonyl)methyl)phosphonic acid] | ≤ 100 nM
22 | O=P(O)(O)[C@](CO)(Cc1nn[nH]n1)OC[C@H]1O[C@@H](n2ncc3c(NC4CCCC4)nc(Cl)nc32)[C@H](O)[C@@H]1O [Example 103, ((S)-2-(((2R,3S,4R,5R)-5-(6-chloro-4-(cyclopentylamino)-1H-pyrazolo[3,4-d]pyrimidin-1-yl)-3,4-dihydroxytetrahydrofuran-2-yl)methoxy)-1-hydroxy-3-(2H-tetrazol-5-yl)propan-2-yl)phosphonic acid] | ≤ 100 nM
23 | CNc1nc(Cl)nc2c1cnn2[C@@H]1O[C@H](COC(CO)P(=O)(O)O)[C@@H](O)[C@H]1O (stereo partly drawn) [Example 29, (1-(((2R,3S,4R,5R)-5-(6-chloro-4-(methylamino)-1H-pyrazolo[3,4-d]pyrimidin-1-yl)-3,4-dihydroxytetrahydrofuran-2-yl)methoxy)-2-hydroxyethyl)phosphonic acid] | ≤ 100 nM

Reference: patent US11325938B2, “CD73 inhibitors” (ORIC Pharmaceuticals, Inc., priority 2018, dated 2022)
